Results as given in US20260070900A1, “A NOVEL CRYSTALLINE FORM OF PRITELIVIR” (Assembly Biosciences, Inc., priority 2022, published 2026).
“Also recorded” adds a separate entry of the source.

Assays:
[1] = Solubility determination in 0.9% NaCl and 0.5% polysorbate 80 (HPLC of filtrate); format: physicochemical; details: RT, aqueous vehicle with 0.9% NaCl and 0.5% polysorbate 80, at 24 hours
Method: Sample preparation: excess Type 4 was added to the vehicle containing 0.9% NaCl and 0.5% polysorbate 80. The mixture was sonicated for 15 minutes, then agitated at 500 rpm at room temperature. At 24 hours, the mixture was filtrated, and filtrate was analyzed by HPLC to determine the solubility. • Instrument: Agilent 1260 • Column: ACE ultracore super C18 (100 mm*4.6 mm*2.5 μm) (P/N: CORE-25A-1046U) • Wavelength: 234 nm • Column Temperature: 20° C. • Column Flow: 1.0 mL/min • Acquisition time: 25 min • Injection volume: 5 μL • Retention time: ˜14 min • Mobile Phase A: 5 mM (NH4)2HPO4 and 5 mM of NH4H2PO4 in H2O • Mobile Phase B: ACN The solubility of Form C (hemihydrate as disclosed in WO 2018/096170) was determined in the same media used to determine the solubility of Type 4 as described above. Sample preparation: excess Form C was added to the vehicle containing 0.9% NaCl and 0.5% polysorbate 80. The mixture was sonicated for 15 minutes, then agitated at 500 rpm at room temperature. […]

[2] = Dynamic vapor sorption (DVS) humidity stability, with XRPD post-DVS; format: physicochemical
Method: Powder X-Ray Diffraction (PXRD): PXRD diffractograms were acquired on Rigaku Smartlab SE diffractometer using Cu, Kα, Kα1(Å):1.540598, Kα2(Å):1.544426 radiation with a Kα2:Kα1 intensity ratio of 0.50. X-Ray tube setting was 40 kV, 15 mA, Scan Mode 1D. The scan range (2 theta) was 3-40°, step size (2 theta) of 0.02° with scan speed (2 theta) of 10°/min. Dynamic Vapor Sorption (DVS): DVS analysis was performed on an Adventure DVS instrument, using a partial pressure range of 0-90%, with a step size of 10% and dm/dt=0.002. DVS data was collected at 25° C. 2 cycles were performed per analysis. Gas flow of N2 (200 sccm) was used.

[3] = DVS at 25° C., 0-90% partial pressure, 2 cycles

solubility [1]	relative humidity at which the form is stable (DVS) [2, 3]	relative humidity at which weight loss is observed (DVS) [2, 3]	solid form post DVS experiment by XRPD ([2]; after DVS, XRPD)	SMILES	stability to humidity (in words) ([2]; conclusion from the characterization data of Example 1)
around 8.4 μg/mL				Cc1nc(N(C)C(=O)Cc2ccc(-c3ccccn3)cc2)sc1S(N)(=O)=O [Form C, N-methyl-N-(4-methyl-5-sulfamoylthiazol-2-yl)-2-(4-(pyridin-2-yl)phenyl)acetamide, reference compound]	
around 18.2 μg/mL	greater than 20%	less than 10%	confirmed as Type 4	Cc1nc(N(C)C(=O)Cc2ccc(-c3ccccn3)cc2)sc1S(N)(=O)=O [Type 4, N-methyl-N-(4-methyl-5-sulfamoylthiazol-2-yl)-2-(4-(pyridin-2-yl)phenyl)acetamide]	stable across a large humidity range; also recorded: stable across a wide range of humidity levels
